How the values were obtained:
plasma prolactin = experiment: Plasma prolactin; assay type: in vivo; details: 3 mg/kg of chlorpromazine, 30 mg/kg clozapine or U-64,273A; Sprague-Dawley rat
Locomotor activity = experiment: Antagonism of apomorphine locomotor activity in reserpinized mouse; assay type: in vivo
Description: (§1) Table 3. […] A. Behavioral effects in the rat. B. Behavioral effects in the monkey. C. Doses required to antagonize the indicated behavioral effects of amphetamine. D. Doses required to antagonize the indicated behavioral effects of apomorphine.

[1] = system: dopamine metabolites HVA, DOPAC, and 3MT; experiment: Dopamine metabolites in rat brain; assay type: in vivo; details: percentage of control; 3 mg/kg of chlorpromazine, 30 mg/kg clozapine or U-64,273A; Sprague-Dawley rat
Catalepsy = experiment: Catalepsy; details: rat
Description: as §1

dopamine neurons [2] = experiment: Reversal of amphetamine depression of dopamine neuron firing rates; assay type: in vivo, rats; details: for Emax / ED50: Rattus norvegicus, Neuron, iv; for Emax: read-out: MAXIMUM EFFECT (per cent reversal)
Procedure: Table 2. Dopamine neuron firing rates were recorded according to published procedures and drugs were injected intravenously in chloral hydrate anesthetized rats. A. Ability of drugs to reverse the depression in firing rates of dopamine neurons by 1 to 2 mg/kg amphetamine. The maximum effect is the maximum amount of the amphetamine effect that was reversed, even when doses were increased beyond dose causing maximum effect. […] B. Depression of dopamine neurons by full agonist apomorphine and partial agonists TDHL, (-)PPP and U-64,273A. Maximum effect is maximum depression that could be realized even after increasing doses beyong the dose causing maximum effect. For both A and B, the ED50 is the dose causing 50% of the respective antagonistic (A) or agonist (B) effect.

body temperature [3] = experiment: Hypothermia Test (effect on body temperature); assay type: in vivo, CF-1 male mice; details: Mus musculus, ip, 0.75 h, read-out: Hypothermia ED50
Procedure: (§2) The Effect on Body Temperature (Hypothermia) Test and the Antagonism of Apomorphone-Induced Case Climbing (ACC), (Apomorphine Gnawing Test) are described on page 1398 of the publication, Journal of Medicinal Chemistry, Vol. 22, No. 11, pp. 1390-1398, in an article entitled "6-Aryl-4H-s-triazolo[4,3-a][1,4]benzodiazepines....Action" by J. B. Hester, Jr., et al.
For the tests here, the Hypothermia Test procedure was run as follows:
A group of four CF-1 male mice (18-22 g each) was injected intraperitoneally with the test compound prepared in 0.25 percent w/v methylcellulose in water solution. After 45 min, abdominal temperature of each mouse was measured using a thermister probe. A control group of four mice was treated with vehicle only and the temperature of the control group was taken in a similar manner. A compound was considered to have a significant effect on body temperature if the mean temperature in the test compound treated group deviated more than 3.5°C from the mean temperature of the parallel control group. Stimulants tend to elevate temperatures; depressants tend to lower body temperature.

[4] = system: Apomorphone-Induced Case Climbing; experiment: Apomorphine antagonism (Apomorphine gnawing test; apomorphine-induced cage climbing); assay type: in vivo, Mouse; details: Mus musculus, read-out: Apomor. Antag. ED50
Description: as §2, §1

Dopamine (3H-spiperone) = experiment: Receptor Binding Assay with 3H-spiperone (Dopamine Binding Assay), rat brain homogenate; details: for Dopamine Binding Assay % Decrease from Control: single concentration of 1 uM, 3H-spiperone, rat brain homogenate, 30 min
Procedure: The Receptor Binding Assay test for antipsychotic acitvity, was conducted as follows:
A rat brain homogenate was prepared (1) by homogenizing a whole rat brain minus the cerebellum in 10 ml of 0.05M THAM-HC1, pH 7.4, using a Polytron at a setting of 7 for 30 sec. and centrifuging at 15,000xg for 10 min. The supernatant was discarded, the pellet resuspended in 10 ml of buffer using the Polytron for 10 sec., and the centrifugation repeated. The pellet was resuspended and diluted to 100 times the original tissue weight with buffer. Then 100 ml of the homogenate was diluted to 400 ml with buffer.
The test drug was weighed out in a scintillation vial in a 1-5 mg ammount. They were dissolved by adding 0.5 ml of N-N-dimethylformamide of (DMF) and then 0.05 ml of 1M acetic acid, and vortexed to solubilize the drug. Then 10 ml of deionized and filtered water was added to the required volume. All compounds were tested at a single concentration of 1 uM.
Samples were prepared for incubation using an ^3H-spiperone (antipsychotic).
Incubation was conducted at 30°C for 30 min. on a shaking water bath. Every 30 sec., 24 tubes were filled with 1 ml of homogenate and put into the bath (this is done every 3 min. until all tubes are in the bath). Upon completion of the incubation procedure, the samples are filtered and rinsed.
The punched filters are dropped into vials, which are in turn filled with ACS liquid scintillation fluid and capped and counted in a liquid scintillation counter. Counting data is recorded and analyzed.
Results are expressed as percent decrease from control.

dopamine neurons [5] = experiment: Depression of dopamine neuron firing rates by the drug alone; assay type: in vivo, rats; details: Rattus norvegicus, iv, intravenously
Procedure: Table 2. Dopamine neuron firing rates were recorded according to published procedures and drugs were injected intravenously in chloral hydrate anesthetized rats. A. Ability of drugs to reverse the depression in firing rates of dopamine neurons by 1 to 2 mg/kg amphetamine. The maximum effect is the maximum amount of the amphetamine effect that was reversed, even when doses were increased beyond dose causing maximum effect. An effect greater than 100% indicates excitation of the neuron beyond its' control rate whereas an effect less than 100% indicates partial agonist effects. B. Depression of dopamine neurons by full agonist apomorphine and partial agonists TDHL, (-)PPP and U-64,273A. Maximum effect is maximum depression that could be realized even after increasing doses beyong the dose causing maximum effect. For both A and B, the ED50 is the dose causing 50% of the respective antagonistic (A) or agonist (B) effect.

6-OH DA Turning = experiment: Antagonism of amphetamine: 6-OH DA turning; assay type: in vivo; details: i.a. = inactive
Description: as §1

muscarinic = experiment: Muscarinic ligand binding, rat brain homogenates; details: 1μM, - indicates ligand was displaced
LSD = LSD ligand binding, rat brain homogenates; details: 1μM, - indicates ligand was displaced
alpha-2 = experiment: Alpha-2 ligand binding, rat brain homogenates; details: 1μM, - indicates ligand was displaced
alpha-1 = experiment: Alpha-1 ligand binding, rat brain homogenates; details: 1μM, i.a. = inactive
body temperature [6] = experiment: Antagonism of drug-induced hypothermia; design: species or system mice; details: mouse, in vivo

Structure (SMILES): CN1CCN(C2=Nc3cc(Cl)ccc3Nc3ccccc32)CC1 [Clozapine, clozapine]
- Plasma Prolactin (plasma prolactin): 42%
- Locomotor activity, reserpinized mouse, 3 mg/kg (antag. of apomorphine) (Locomotor activity): 52%
- 3MT [1]: 104%
- DOPAC [1]: 110%
- HVA [1]: 118%
- Catalepsy, active dose (Catalepsy; i.a. = inactive): i.a.
- Emax (dopamine neurons [2]; A. antagonize amphetamine depressions, intravenously, chloral hydrate anesthetized rats, 1 to 2 mg/kg amphetamine, >100% = excitation beyond control rate): 105%
- ED50 (dopamine neurons [2]; dose causing 50% of the antagonistic effect, intravenously, anesthetized rats, read-out: ED50): 2 mg/kg

Structure (SMILES): CCCN(CCC)C1Cc2cccc3c(C)ccc(c23)C1 (stereo not drawn) [Example 38, title compound, 2,3-Dihydro-6-methyl-N,N-dipropyl-lH-phenalene-2-amine]
- ED50 (body temperature [3]): 18 mg/kg
- ED50 [4]: > 50 mg/kg
- Dopamine Binding Assay % Decrease from Control (Dopamine (3H-spiperone)): -82.08%

Structure (SMILES): CCCN(CCC)C1(C)Cc2cccc3cc(O)cc(c23)C1 (stereo not drawn) [Example 41, 5-Hydroxy-2-methyl-2,3-dihydro-N,N-di-n-propyl-lH-phenalene-2-amine]
- ED50 (body temperature [3]): > 50 mg/kg
- ED50 [4]: > 50 mg/kg
- Dopamine Binding Assay % Decrease from Control (Dopamine (3H-spiperone)): -55.18%

Structure (SMILES): CN1CCc2cccc3c2[C@H]1Cc1ccc(O)c(O)c1-3 [Apomorphine, apomorphine]
- ED50 (dopamine neurons [5]; Neuron, dose causing 50% of the agonist effect, anesthetized rats, read-out: ED50): 0.01 mg/kg
- Emax (dopamine neurons [5]; B. depress DA neuron firing rates, chloral hydrate anesthetized rats, read-out: MAXIMUM EFFECT (per cent decrease)): 100%
- 6-OH DA Turning, rat, dose required to antagonize amphetamine (6-OH DA Turning): i.a.
- Catalepsy, active dose (Catalepsy; in vivo): i.a.

Structure (SMILES): Cc1ccc2c3c(cccc13)CC(N(C)C)C2 (stereo not drawn) [Example 39, part C, 2,3-dihydro-N,N,6-trimethyl-lH-phenalen-2-amine]
- ED50 (body temperature [3]): 5.3 mg/kg
- ED50 [4]: 21 mg/kg

Structure (SMILES): CN(C)CCCN1c2ccccc2Sc2ccc(Cl)cc21 [CHLORPROMAZINE, chlorpromazine, reference compound]
- Plasma Prolactin (plasma prolactin): 1057%
- muscarinic, percentage of ligand displaced (muscarinic): -96.4%
- LSD, percentage of ligand displaced (LSD): -76.8%
- Locomotor activity, reserpinized mouse, 3 mg/kg (antag. of apomorphine) (Locomotor activity): 85% (CPZ)
- 3MT [1]: 365%
- DOPAC [1]: 375%
- HVA [1]: 225%
- alpha-2, percentage of ligand displaced (alpha-2): -83.4%
- alpha-1, percentage of ligand displaced (alpha-1): -98.6%
- spiperone, percentage of ligand displaced (Dopamine (3H-spiperone); 1μM, rat brain homogenates, - indicates ligand was displaced): -81.6%

Structure (SMILES): CCCN(CCC)C1Cc2cccc3c(SC)ccc(c23)C1 (stereo not drawn) [Example 40, 2,3-Dihydro-N,N-di-n-propyl-6-methylthio-lH-phenalen-2-amine]
- ED50 (body temperature [3]): 25 mg/kg
- ED50 [4]: 12.5 mg/kg

Structure (SMILES): Cc1ccc2c3c(cccc13)CC(N)C2 (stereo not drawn) [Example 38, part C, 6-methyl-2,3-dihydro-lH-phenalen-2-amine]
- ED50 (body temperature [3]): > 50 mg/kg
- ED50 [4]: 35 mg/kg
- Dopamine Binding Assay % Decrease from Control (Dopamine (3H-spiperone)): -30.62%

Structure (SMILES): O=C(CCCN1CCC(O)(c2ccc(Cl)cc2)CC1)c1ccc(F)cc1 [Haloperidol, haloperidol]
- Catalepsy, active dose (Catalepsy; in vivo): 1 mg/kg
- ED50 (dopamine neurons [2]): 0.008 mg/kg
- Emax (dopamine neurons [2]): 164%
- increase of firing rates to a level greater than controls (dopamine neurons [2]; after reversal of amphetamine depression of DA neuronal firing): 64%
- block of hypothermia induced by 2-(N,N-di-n-propylamino)-2,3-dihydro-lH-phenalen-5-ol (body temperature [6]): significantly blocks

Structure (SMILES): CNC1Cc2cccc3c(C)ccc(c23)C1 (stereo not drawn) [Example 39, part B, 2,3-dihydro-N,6-dimethyl-1H-phenalen-2-amine]
- ED50 (body temperature [3]): 13 mg/kg
- ED50 [4]: 35 mg/kg
- Dopamine Binding Assay % Decrease from Control (Dopamine (3H-spiperone)): -55.37%

Structure (SMILES): COC(=O)[C@@H]1[C@H]2C[C@H]3c4[nH]c5ccccc5c4CCN3C[C@@H]2CC[C@@H]1O [yohimbine]
- block of hypothermia induced by 2-(N,N-di-n-propylamino)-2,3-dihydro-lH-phenalen-5-ol (body temperature [6]): did not alter
- block of hypothermia induced by clonidine (body temperature [6]): did block

Reference: patent EP0234113A1, “2,3-Dihydro-1H-phenalene-2-amino compounds as anti-psychotic drugs” (THE UPJOHN COMPANY, priority 1985, dated 1987)
